Measurements published in patent publication US11278530B2, “Polycyclic amides as muscarinic M1 receptor positive allosteric modulators” (SUVEN LIFE SCIENCES LIMITED, priority 2017, dated 2022).

Molecular target: T1, recombinant human Muscarinic M1 receptor (Homo sapiens, UniProt P11229)
T1 sequence (P11229 1-460): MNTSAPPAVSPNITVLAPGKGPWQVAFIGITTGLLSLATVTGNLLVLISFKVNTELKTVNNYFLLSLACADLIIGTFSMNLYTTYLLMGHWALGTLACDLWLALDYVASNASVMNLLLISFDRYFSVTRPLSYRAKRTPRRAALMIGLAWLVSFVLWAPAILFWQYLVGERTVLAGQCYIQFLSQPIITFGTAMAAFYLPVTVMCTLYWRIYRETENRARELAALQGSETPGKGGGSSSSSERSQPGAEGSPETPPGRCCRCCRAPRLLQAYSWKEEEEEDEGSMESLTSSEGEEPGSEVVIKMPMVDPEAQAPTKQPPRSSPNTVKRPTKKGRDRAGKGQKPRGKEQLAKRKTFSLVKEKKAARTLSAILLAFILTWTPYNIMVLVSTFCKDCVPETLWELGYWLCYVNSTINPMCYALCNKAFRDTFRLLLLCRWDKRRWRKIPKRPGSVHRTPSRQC
Assay: Allosteric potency EC50 for Muscarinic M1 receptor, CHO pCRE-Luc reporter cell-based assay with EC20 of acetylcholine
Conditions: CHO cells, human M1, luciferase reporter, in presence of EC20 of acetylcholine, 4 h
Procedure: Determination of allosteric potency EC50 values for Muscarinic M1 receptor:
A stable CHO cell line expressing recombinant human Muscarinic M1 receptor and pCRE-Luc reporter system was used for cell-based assay. The assay offers a non-radioactive based approach to determine binding of a compound to GPCRs. In this specific assay, the level of intracellular cyclic AMP which is modulated by activation or inhibition of the receptor is measured. The recombinant cells harbor luciferase reporter gene under the control of cAMP response element.
The above cells were grown in 96 well clear bottom white plates in Hams F12 medium containing 10% fetal bovine serum (FBS). Prior to the addition of compounds or standard agonist, cells were serum starved overnight. Increasing concentrations of test compounds were added along with EC20 of acetylcholine in OptiMEM medium to the cells. The incubation was continued at 37° C. in CO2 incubator for 4 h. Medium was removed and cells were washed with phosphate buffered saline. The cells were lysed and luciferase activity was measured in a Luminometer. Luminescence counts in each concentrations of test item were normalized to the acetylcholine induced maximum response and the data was analyzed using Graphpad software. EC50 values of the compounds were defined as the concentration required in stimulating the luciferase activity by 50% in presence of EC20 of acetylcholine.

Which EC50 does the source give for `Cc1c(Cc2ccc(Cl)nc2)cc(C(=O)NC2CCOC[C@@H]2O)c2ncccc12` (stereo partly drawn) [Example 3, N-(cis-3S,4S-3-Hydroxytetrahydropyran-4-yl)-6-(2-chloropyridin-5-ylmethyl)-5-methylquinoline-8-carboxamide] here?
Its EC50 is 1.24 µM.

With `Cc1c(Cc2ccnc(F)c2)cc(C(=O)N[C@H]2CCCC[C@@H]2O)c2ncccc12` [Example 4, N-(cis-1S,2S-2-Hydroxycyclohexyl)-6-(2-fluoropyridin-4-ylmethyl)-5-methylquinoline-8-carboxamide] as the molecule, how does the EC50 read?
Its EC50 is 0.96 µM.

With `Cc1c(Cc2ccccc2F)cc(C(=O)N[C@H]2CCCC[C@@H]2O)c2ncccc12` [Example 5, N-(cis-1S,2S-2-Hydroxycyclohexyl)-6-(2-fluorobenzyl)-5-methylquinoline-8-carboxamide] as the molecule, how does the EC50 read?
The EC50 was 2.34 µM.

With `Cc1c(Cc2ccc(-c3cnn(C)c3)nc2)cc(C(=O)N[C@H]2CCCC[C@@H]2O)c2ncccc12` [Example 7, N-(cis-1S,2S-2-Hydroxycyclohexyl)-6-[2-(1-methyl-1H-pyrazol-4-yl)-pyridin-5-ylmethyl]-5-methylquinoline-8-carboxamide] as the molecule, how does the EC50 read?
The EC50 was 0.232 µM.

How did the EC50 turn out when `Cc1c(Cc2ccc(-c3cnn(C)c3)c(F)c2)cc(C(=O)N[C@H]2CCCC[C@@H]2O)c2ncccc12` [Example 9, N-(cis-1S,2S-2-Hydroxycyclohexyl)-6-[3-fluoro-4-(1-methyl-1H-pyrazol-4-yl)-benzyl]-5-methylquinoline-8-carboxamide] was run?
The EC50 was 0.185 µM.

For `Cc1c(Cc2ccc(-n3cccn3)cc2)cc(C(=O)N[C@H]2CCCC[C@@H]2O)c2ncccc12` [Example 10, N-(cis-1S,2S-2-Hydroxycyclohexyl)-6-(4-pyrazol-1-yl-benzyl)-5-methylquinoline-8-carboxamide], which EC50 is on record?
The EC50 was 0.157 µM.

For `Cc1c(Cc2ccc(-c3cscn3)cc2)cc(C(=O)N[C@H]2CCCC[C@@H]2O)c2ncccc12` [Example 12, N-(cis-1S,2S-2-Hydroxycyclohexyl)-6-(4-thiazol-4-yl-benzyl)-5-methylquinoline-8-carboxamide], which EC50 is on record?
Its EC50 is 0.258 µM.

With `Cc1c(Cc2ccc(-c3cscn3)cc2)cc(C(=O)N[C@H]2CCOC[C@@H]2O)c2ncccc12` [Example 13, N-(cis-3S,4S-3-Hydroxytetrahydropyran-4-yl)-6-(4-thiazol-4-yl-benzyl)-5-methylquinoline-8-carboxamide] as the molecule, how does the EC50 read?
Its EC50 is 0.249 µM.

With `Cc1c(Cc2ccc(-c3cnn(C)c3)cc2)cc(C(=O)N[C@H]2CCCC[C@@H]2O)c2c1NCCO2` [Example 16, N-(cis-1S,2S-2-Hydroxycyclohexyl)-6-[4-(1-methyl-1H-pyrazol-4-yl)-benzyl]-5-methyl-3,4-dihydro-2H-benzo[1,4]oxazine-8-carboxamide] as the molecule, how does the EC50 read?
Its EC50 is 0.798 µM.

With `Cc1c(Cc2ccc(-c3cnn(C)c3)cc2)cc(C(=O)N[C@H]2CCCC[C@@H]2O)c2nccn12` [Example 18, N-(cis-1S,2S-2-Hydroxycyclohexyl)-5-methyl-6-[4-(1-methyl-1H-pyrazol-4-yl)-benzyl]-imidazo[1,2-a]pyridine-8-carboxamide] as the molecule, how does the EC50 read?
The EC50 was 0.248 µM.

With `Cc1c(Cc2ccc(-n3cccn3)cc2)cc(C(=O)N[C@H]2CCCC[C@@H]2O)c2nccn12` [Example 19, N-(cis-1S,2S-2-Hydroxycyclohexyl)-5-methyl-6-(4-pyrazol-1-yl-benzyl)-imidazo[1,2-a]pyridine-8-carboxamide] as the molecule, how does the EC50 read?
Its EC50 is 0.178 µM.

`Cc1c(Cc2ccc(-c3cnn(C)c3)cc2F)cc(C(=O)N[C@H]2CCCC[C@@H]2O)c2nccn12` [Example 20, N-(cis-1S,2S-2-Hydroxycyclohexyl)-5-methyl-6-[2-fluoro-4-(1-methyl-1H-pyrazol-4-yl)-benzyl]-imidazo[1,2-a]pyridine-8-carboxamide] was tested. Which EC50 did it give?
The EC50 was 0.028 µM.

With `Cn1cc(-c2ccc(Cc3cc(C(=O)N[C@H]4CCCC[C@@H]4O)c4nccn4c3)c(F)c2F)cn1` [Example 21, N-(cis-1S,2S-2-Hydroxycyclohexyl)-6-[2,3-difluoro-4-(1-methyl-1H-pyrazol-4-yl)-benzyl]-imidazo[1,2-a]pyridine-8-carboxamide] as the molecule, how does the EC50 read?
The EC50 was 1.05 µM.

`O=C(N[C@H]1CCCC[C@@H]1O)c1cc(Cc2cccc(F)c2F)cn2ccnc12` [Example 22, N-(cis-1S,2S-2-Hydroxycyclohexyl)-6-(2.3-difluorobenzyl)-imidazo[1,2-a]pyridine-8-carboxamide] was tested. Which EC50 did it give?
The EC50 was 3.82 µM.

`O=C(N[C@H]1CCCC[C@@H]1O)c1cc(Cc2ccc(-c3cscn3)cc2)cn2ccnc12` [Example 23, N-(cis-1S,2S-2-Hydroxycyclohexyl)-6-(4-thiazol-4-yl-benzyl)-imidazo[1,2-a]pyridine-8-carboxamide] was tested. Which EC50 did it give?
Its EC50 is 0.308 µM.

Which EC50 does the source give for `O=C(N[C@H]1CCCC[C@@H]1O)c1cc(Cc2ccc(-c3ccccc3)cc2)cn2ccnc12` [Example 24, N-(cis-1S,2S-2-Hydroxycyclohexyl)-6-(4-phenyl-benzyl)-imidazo[1,2-a]pyridine-8-carboxamide] here?
Its EC50 is 3.91 µM.

With `Cn1cc(-c2ccc(Cc3cc(C(=O)N[C@H]4CCCC[C@@H]4O)c4nccn4c3)cc2)cn1` [Example 25, N-(cis-1S,2S-2-Hydroxycyclohexyl)-6-[4-(1-methyl-1H-pyrazol-4-yl)-benzyl]-imidazo[1,2-a]pyridine-8-carboxamide] as the molecule, how does the EC50 read?
The EC50 was 0.444 µM.

How did the EC50 turn out when `Cn1cc(-c2ccc(Cc3cc(C(=O)N[C@H]4CCCC[C@@H]4O)c4nccn4c3)c(F)c2)cn1` [Example 26, N-(cis-1S,2S-2-Hydroxycyclohexyl)-6-[2-fluoro-4-(1-methyl-1H-pyrazol-4-yl)-benzyl]-imidazo[1,2-a]pyridine-8-carboxamide] was run?
The EC50 was 3.34 µM.

How did the EC50 turn out when `Cc1c(Cc2ccc(-n3cccn3)cc2)cc(C(=O)N[C@H]2CCCC[C@@H]2O)c2nc[nH]c12` [Example 27, N-(cis-1S,2S-2-Hydroxycyclohexyl)-7-methyl-6-(4-pyrazol-1-yl-benzyl)-1H-benzimidazole-4-carboxamide] was run?
The EC50 was 0.357 µM.

How did the EC50 turn out when `Cc1c(Cc2ccc(-c3cnn(C)c3)cc2)cc(C(=O)N[C@H]2CCCC[C@@H]2O)c2nc[nH]c12` [Example 28, N-(cis-1S,2S-2-Hydroxycyclohexyl)-7-methyl-6-[4-(1-methyl-1H-pyrazol-4-yl)-benzyl]-1H-benzimidazole-4-carboxamide] was run?
Its EC50 is 0.105 µM.

How did the EC50 turn out when `Cn1cc(-c2ccc(Cc3cc(C(=O)N[C@@H]4CCCC[C@H]4O)c4nc[nH]c4c3)cc2)cn1` [Example 29, N-(cis-1S,2S-2-Hydroxycyclohexyl)-6-[4-(1-methyl-1H-pyrazol-4-yl)-benzyl]-1H-benzimidazole-4-carboxamide] was run?
The EC50 was 0.449 µM.

Which EC50 does the source give for `Cc1c(Cc2ccc(-c3cnn(C)c3)cc2F)cc(C(=O)N[C@@H]2CCCC[C@H]2O)c2nc[nH]c12` [Example 30, N-(cis-1S,2S-2-Hydroxycyclohexyl)-7-methyl-6-[2-fluoro-4-(1-methyl-1H-pyrazol-4-yl)-benzyl]-1H-benzimidazole-4-carboxamide] here?
Its EC50 is 0.151 µM.

Which EC50 does the source give for `Cc1c(Cc2cccnc2Cl)cc(C(=O)N[C@@H]2CCCC[C@H]2O)c2nc[nH]c12` [Example 31, N-(cis-1S,2S-2-Hydroxycyclohexyl)-7-methyl-6-[2-chloropyridin-3-ylmethyl]-1H-benzimidazole-4-carboxamide] here?
Its EC50 is 2.82 µM.

With `Cc1c(Cc2ccc(-c3cscn3)cc2)cc(C(=O)N[C@@H]2CCCC[C@H]2O)c2nc[nH]c12` [Example 32, N-(cis-1S,2S-2-Hydroxycyclohexyl)-7-methyl-6-[4-(thiazol-4-yl)-benzyl]-1H-benzimidazole-4-carboxamide] as the molecule, how does the EC50 read?
The EC50 was 0.516 µM.

How did the EC50 turn out when `Cc1c(Cc2cccc(F)c2F)cc(C(=O)N[C@@H]2CCCC[C@H]2O)c2nc[nH]c12` [Example 33, N-(cis-1S,2S-2-Hydroxycyclohexyl)-7-methyl-6-[2,3-difluorobenzyl]-1H-benzimidazole-4-carboxamide] was run?
Its EC50 is 3.66 µM.

How did the EC50 turn out when `Cc1c(Cc2ccc(F)c(F)c2)cc(C(=O)N[C@@H]2CCCC[C@H]2O)c2nc[nH]c12` [Example 34, N-(cis-1S,2S-2-Hydroxycyclohexyl)-7-methyl-6-[3,4-difluorobenzyl]-1H-benzimidazole-4-carboxamide] was run?
Its EC50 is 2.28 µM.

`Cc1c(Cc2ccc(-c3cnn(C)c3)nc2)cc(C(=O)N[C@@H]2CCCC[C@H]2O)c2nc[nH]c12` [Example 35, N-(cis-1S,2S-2-Hydroxycyclohexyl)-7-methyl-6-[6-(1-methyl-1H-pyrazol-4-yl)-pyridin-3-ylmethyl]-1H-benzimidazole-4-carboxamide] was tested. Which EC50 did it give?
Its EC50 is 0.237 µM.

How did the EC50 turn out when `Cc1c(Cc2ccc(-c3cnn(C)c3)c(F)c2F)cc(C(=O)N[C@H]2CCCC[C@@H]2O)c2[nH]cnc12` [Example 36, N-(cis-1S,2S-2-Hydroxycyclohexyl)-7-methyl-6-[2,3-difluoro-4-(1-methyl-1H-pyrazol-4-yl)-benzyl]-1H-benzimidazole-4-carboxamide] was run?
Its EC50 is 0.465 µM.

Which EC50 does the source give for `Cn1cc(-c2ccc(Cc3cc(C(=O)N[C@H]4CCCC[C@@H]4O)c4[nH]cnc4c3)c(F)c2F)cn1` [Example 37, N-(cis-1S,2S-2-Hydroxycyclohexyl)-6-[2,3-difluoro-4-(1-methyl-1H-pyrazol-4-yl)-benzyl]-1H-benzimidazole-4-carboxamide] here?
The EC50 was 0.597 µM.
